Consider nine molecules from patent US20230303613A1, “3′3′ CYCLIC DINUCLEOTIDES WITH AN ALKENYLENE” (Institute of Organic Chemistry and Biochemistry AS CR, v.v.i, priority 2020, published 2023).

For assay [1], the target named is T1, WT STING (Homo sapiens, UniProt Q86WV6, H232R). Description: Differential Scanning Fluorimetry with WT STING. The following applies: thermal shift vs apoprotein, 150 µM CDN, truncated human WT STING 0.1 mg/ml; for ΔTm at 150 µM: read-out: DSF ΔTm WT STING. Also on record: 8xHis (N, cleaved yes); SUMO (N, cleaved yes); made in house; host or cells: E. coli Rosetta-gami B (DE3). Type of assay: binding. From the text:
(§1) Purified PCR products were cleaved with restriction enzymes BamHI (cat. # R0136S, NEB, Ipswich, USA) and NotI (cat. # R0189S, NEB, Ipswich, USA) and cloned into the pSUMO vector linearized with the identical enzymes.
(§2) Bacterial pellets were re-suspended in ice-cold lysis buffer containing 50 mmol.1^-1 TrisCl (cat. # T1503, Sigma Aldrich, Czech Republic) pH 8.0, 300 mmol.1^-1 NaCl, 3 mmol.1^-1 β-mercaptoethanol (cat. # M6250, Sigma Aldrich, Czech Republic), 10% glycerol (cat. # G5516, Sigma Aldrich, Czech Republic) and 20 mmol.1^-1 imidazole (cat. # I5513, Sigma Aldrich, Czech Republic) using Dounce homogenizer. DNase I (cat. # D5025, Sigma Aldrich, Czech Republic) and RNase A (cat. # R6513, Sigma Aldrich, Czech Republic) were added (final concentration 50 µg/ml) together with MgCl2 (final concentration 5 mmol.l^-1) to the homogenate and bacteria were lysed using French Press G-M™ High-Pressure Cell Press Homogenizer (1500 psi, 3 cycles). […] The resin was poured into a chromatography column, washed with 50 ml buffer A (50 mmol.1^-1 TrisCl (pH 8.0), 800 mmol.1^-1 NaCl, 3 mmol.1^-1 β-mercaptol; 10% glycerol; 20 mmol.1^-1 imidazole) and 8-His-SUMO tagged STING proteins were eluted with 15 ml buffer A containing 300 mmol.1^-1 imidazole. […] Proteins were concentrated with Amicon® Ultra-15 10 K device (cat. # UFC901008, Merck Millipore, Billerica, USA) and flash frozen in liquid N2.
(§3) 20 µL solutions of the reaction mixtures were pipetted in triplicates into 96 well optical reaction plates and thermal denaturation of samples were performed on real time PCR cycler (LightCycler® 480 Instrument II - Roche, Basel, Switzerland). The first derivative of the thermal denaturation curves was performed to calculate denaturing temperatures of STING - CDN complexes and STING apoproteins. The thermal shift for each CDN was calculated by subtracting the average denaturing temperature of STING apoprotein from the average denaturing temperature of STING CDN complex.
In general terms: In DSF a fluorescence change marks the thermal transition of the protein.
Target sequence in this assay (Q86WV6 140-343 H232R): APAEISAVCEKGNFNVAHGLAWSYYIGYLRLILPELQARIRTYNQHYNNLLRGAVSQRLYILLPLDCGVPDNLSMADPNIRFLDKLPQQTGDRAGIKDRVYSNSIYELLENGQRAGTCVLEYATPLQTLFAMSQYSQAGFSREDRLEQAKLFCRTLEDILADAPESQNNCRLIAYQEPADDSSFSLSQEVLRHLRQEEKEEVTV

In assay [2] the target is T2, AQ STING (G230A-R293Q) (Homo sapiens, UniProt Q86WV6, G230A/H232R/R293Q).
T2 construct: 8xHis (N, cleaved yes); SUMO (N, cleaved yes); made in house; host or cells: E. coli Rosetta-gami B (DE3)
As to the kind of experiment: Differential Scanning Fluorimetry with AQ STING. Type of assay: binding. The following applies: thermal shift vs apoprotein, 150 µM CDN, truncated human AQ STING 0.1 mg/ml; for ΔTm at 150 µM: read-out: DSF ΔTm AQ STING.
From the text: as §1, §2, §3

The target in assay [3] is T1, WT STING. As to the kind of experiment: Digitonin assay using 293T wtSTING-FL reporter cells. The following applies: 293T wtSTING-FL cells; 30 minutes in Digitonin buffer, then 5 hours; ISRE firefly luciferase reporter. Type of assay: cell-based. From the text:
Two complementary oligonucleotides of the sequence […] […] […] […] […] The oligonucleotides were mixed in equal molar amounts, hybridized, and cleaved by restriction endonucleases HindIII (cat. #. R0104S, NEB, Ipswich, USA) and BglII (cat. # R0144S, NEB, Ipswich, USA). Ultimately, they were ligated into plasmid pGL4.27 (cat. # E6651, Promega, Madison, USA) linearized with the same enzymes. As result the sequence with four ISRE sites was placed upstream of the minimum promoter of firefly luciferase reporter gene.
After 5 minutes incubation at room temperature (RT), 250 µL of the mixture was added dropwise to the cells in one well. Cells were incubated 36 hours at 37° C. with 5% CO2, and then detached with 0.05% Trypsin and 0.22 g/L EDTA (both cat. # L0941, Biowest, Riverside, USA).
Transfected cells were seeded onto poly-D-lysine coated six well plates at density 50,000 cells per 1 cm^2 in DMEM medium with high glucose containing 10% heat inactivated FBS, 30 µg/mL blasticidin (cat. # ant-bl-05, InvivoGen, San Diego, USA), 0.06 mg/ml Penicillin G and 0.1 mg/ml Streptomycin Sulfate (both cat. #. L0018, Biowest, Riverside, USA). The medium was replenished every 3 - 4 days until visible colonies of cells resistant to blasticidin were formed.
Blasticidin resistant cells stably expressing WT STING were further transfected with […] plasmid following the same procedure as described above. […] Homogeneous culture of stably double transfected cells was prepared by limiting dilution of cells in 96 well plates and wells with cells were selected that originated from a single cell.
The medium was removed next day and three fold serial dilutions of compounds in Digitonin buffer containing 50 mmol.l^-1 HEPES (cat. # H3375, Sigma Aldrich, Czech Republic) pH 7.0, 100 mmol.1^-1 KCl, 3 mmol.l^-1 MgCl2, 0.1 mmol.l^-1 DTT (cat. # D0632, Sigma Aldrich, Czech Republic), 85 mmol.1^-1 Sucrose (cat. # S7903, Sigma Aldrich, Czech Republic), 0.2% BSA (cat. # A2153, Sigma Aldrich, Czech Republic), 1 mmol.l^-1 ATP (cat. # A1852, Sigma Aldrich, Czech Republic), 0.1 mmol.1^-1 GTP (cat. # G8877, Sigma Aldrich, Czech Republic), and 10 µg/mL Digitonin A (cat. # D141, Sigma Aldrich, Czech Republic) were added to the cells. The buffer was removed after 30 minutes incubation at 37° C. with 5% CO2, the cells were washed once with 100 µl of cultivation medium, and 100 µl of medium was added to each well. The plates with cells were incubated for 5 hours at 37° C. with 5% CO2, 50µl of the medium was removed and 30 µl of ONE-Glo^Tm Luciferase Assay System reagent (cat. # E6120, Promega, Madison, USA) was added to each well. Luminescence was read on Synergy H1 (Biotek, Winooski, USA).
Target sequence in this assay (Q86WV6 whole entry H232R, the tested form may be a part): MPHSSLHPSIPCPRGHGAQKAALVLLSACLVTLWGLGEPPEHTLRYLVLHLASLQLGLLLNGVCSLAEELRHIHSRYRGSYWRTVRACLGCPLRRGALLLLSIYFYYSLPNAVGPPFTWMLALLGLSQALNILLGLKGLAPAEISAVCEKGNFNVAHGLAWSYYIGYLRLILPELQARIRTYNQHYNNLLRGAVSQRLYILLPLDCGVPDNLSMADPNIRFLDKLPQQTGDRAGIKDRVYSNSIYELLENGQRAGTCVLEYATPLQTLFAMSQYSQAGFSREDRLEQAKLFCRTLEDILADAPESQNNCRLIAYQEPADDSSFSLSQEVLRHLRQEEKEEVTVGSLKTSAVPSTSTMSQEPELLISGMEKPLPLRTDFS

pEC50: −log10 of the molar value.

What is called pEC50 is the EC50 on a negative log10 scale, so that one unit is a factor of ten. Usually ΔTm stands for the shift of the melting midpoint relative to a reference.

T2 sequence (Q86WV6 140-343 G230A/H232R/R293Q): as the sequence (Q86WV6 140-343 H232R) above, with G91A, R154Q counted along it

As to `Nc1ncnc2c1ncn2[C@@H]1O[C@@H]2COP(=O)(O)O[C@H]3[C@@H](O)[C@H](n4cnc5c(N)ncnc54)O[C@@H]3COP(=O)(O)O[C@H]2[C@H]1O` [3′3′c-di-AMP, 3′3′-c-di-AMP, reference compound], in assay [1], the “DSF ΔTm WT STING” value came out at 2.6 °C. Further, the “DSF ΔTm AQ STING” value in assay [2] came out at 9.3 °C. Moreover, the pEC50 in assay [3] was 6.52.
With `Nc1nc(N)c2ncn([C@@H]3O[C@@H]4COP(=O)(O)O[C@H]5[C@@H](O)[C@H](n6cnc7c(=O)[nH]c(N)nc76)O[C@@H]5/C=C\P(=O)(O)O[C@H]4[C@H]3O)c2n1` (stereo in doubt) [Compound 69, (1S,6R,8R,9R,10S,15R,17R,18R)-17-(2-amino-6-oxo-6,9-dihydro-1H-purin-9-yl)-8-(2,6-diamino-9H-purin-9-yl)-3,9,12,18-tetrahydroxy-2,4,7,11,16-pentaoxa-3λ^5,12λ^5-diphosphatricyclo[13.3.0.0^6,^10]octadec-13-ene-3,12-dione], the ΔTm at 150 µM in assay [1] was determined as 1.2 °C; in assay [2], 3.5 °C. Besides, the pEC50 in assay [3] is 4.48.
With `Nc1nc2c(ncn2[C@@H]2O[C@@H]3/C=C\P(=O)(O)O[C@H]4C[C@H](n5cnc6c(N)nc(F)nc65)O[C@@H]4COP(=O)(O)O[C@H]3[C@H]2O)c(=O)[nH]1` [Compound 66, (1S,6R,8R,10S,13Z,15R,17R,18R)-8-(6-amino-2-fluoro-9H-purin-9-yl)-17-(2-amino-6-oxo-6,9-dihydro-1H-purin-9-yl)-3,12,18-trihydroxy-2,4,7,11,16-pentaoxa-3λ^5,12λ^5-diphosphatricyclo[13.3.0.0^6,^10]octadec-13-ene-3,12-dione], the ΔTm at 150 µM in assay [1] is 0.5 °C; in assay [2], 1.7 °C. Moreover, the pEC50 in assay [3] was 4.82.
As for `Nc1nc2c(ncn2[C@@H]2O[C@@H]3/C=C/P(=O)(O)O[C@H]4[C@@H](F)[C@H](n5cnc6c(=O)[nH]c(N)nc65)O[C@@H]4COP(=O)(O)O[C@H]3[C@H]2F)c(=O)[nH]1` [Compound 56, (1R,6R,8R,9R,10R,13E,15R,17R,18R)-8,17-bis(2-amino-6-oxo-6,9-dihydro-1H-purin-9-yl)-9,18-difluoro-3,12-dihydroxy-2,4,7,11,16-pentaoxa-3λ^5,12λ^5-diphosphatricyclo[13.3.0.0^6,^10]octadec-13-ene-X3.12-dione], the ΔTm at 150 µM in assay [1] worked out at 4.1 °C; in assay [2], 10.6 °C. In addition, the pEC50 in assay [3] was 6.30.
Regarding `Nc1nc2c(ncn2[C@@H]2O[C@@H]3/C=C\P(=O)(O)O[C@H]4[C@@H](N)[C@H](n5cnc6c(N)ncnc65)O[C@@H]4COP(=O)(O)O[C@H]3[C@H]2O)c(=O)[nH]1` [Compound 67, (1S,6R,8R,9R,10S,13Z,15R,17R,18R)-9-amino-17-(2-amino-6-oxo-6,9-dihydro-1H-purin-9-yl)-8-(6-amino-9H-purin-9-yl)-3,12,18-trihydroxy-2,4,7,11,16-pentaoxa-3λ^5,12λ^5-diphosphatricyclo[13.3.0.0^6,^10]octadec-13-ene-3,12-dione], the ΔTm at 150 µM in assay [1] worked out at 0.3 °C; in assay [2], 2.9 °C. For the same molecule, the pEC50 in assay [3] was 5.19.
On to `Nc1nc2c(ncn2[C@H]2C[C@@H]3OP(=O)(O)/C=C/[C@H]4O[C@@H](n5cnc6c(N)ncnc65)[C@H](F)[C@@H]4OP(=O)(O)OC[C@H]3O2)c(=O)[nH]1` [Compound 57, (1R,6R,8R,10S,13E,15R,17R,18R)-8-(2-amino-6-oxo-6,9-dihydro-1H-purin-9-yl)-17-(6-amino-9H-purin-9-yl)-18-fluoro-3,12-dihydroxy-2,4,7,11,16-pentaoxa-3λ^5,12λ^5-diphosphatricyclo[13.3.0.0^6,^10]octadec-13-ene-3,12-dione], for which the figures for the ΔTm at 150 µM in assay [1] and in assay [2] were 6.1 °C and 11.3 °C, respectively. Also, the pEC50 in assay [3] is 6.92.
For `Nc1nc2c(ncn2[C@@H]2O[C@@H]3COP(=O)(O)O[C@H]4[C@@H](O)[C@H](n5cnc6c(=O)[nH]c(N)nc65)O[C@@H]4COP(=O)(O)O[C@H]3[C@H]2O)c(=O)[nH]1` [3′3′c-di-GMP, 3′3′-c-di-GMP, reference compound], in assay [1], the “DSF ΔTm WT STING” value amounted to 2.6 °C. Further, in assay [2], the “DSF ΔTm AQ STING” value was found to be 7.7 °C. For the same molecule, the pEC50 in assay [3] was 5.24.
In the case of `Nc1nc(N)c2ncn([C@@H]3O[C@@H]4COP(=O)(O)O[C@H]5[C@@H](O)[C@H](n6cnc7c(=O)[nH]c(N)nc76)O[C@@H]5/C=C\P(=O)(O)O[C@H]4[C@H]3F)c2n1` [Compound 65, (1S,6R,8R,9R,10R,13Z,15R,17R,18R)-17-(2-amino-6-oxo-6,9-dihydro-1H-purin-9-yl)-8-(2,6-diamino-9H-purin-9-yl)-9-fluoro-3,12,18-trihydroxy-2,4,7,11,16-pentaoxa-3λ^5,12λ^5-diphosphatricyclo[13.3.0.0^6,^10]octadec-13-ene-3,12-dione], the ΔTm at 150 µM stood at 3.1 °C in assay [1] and 8 °C in assay [2]. Besides, in assay [3], the pEC50 is 5.30.
Regarding `Nc1nc2c(ncn2[C@@H]2O[C@@H]3/C=C/P(=O)(O)O[C@H]4[C@@H](F)[C@H](n5cnc6c(N)ncnc65)O[C@@H]4COP(=O)(O)O[C@H]3[C@H]2F)c(=O)[nH]1` [Compound 54, (1R,6R,8R,9R,10R,13E,15R,17R,18R)-17-(2-amino-6-oxo-6,9-dihydro-1H-purin-9-yl)-8-(6-amino-9H-purin-9-yl)-9,18-difluoro-3,12-dihydroxy-2,4,7,11,16-pentaoxa-3λ^5,12λ^5-diphosphatricycl [13.3.0.0^6,^10]octadec-13-ene-3,12-dione], the ΔTm at 150 µM came to 9.2 °C in assay [1] and 15 °C in assay [2]. In addition, the negative-log EC50 (pEC50) in assay [3] was 7.70.
